Tests used:
[1] = molecular target: JAK1 (recombinant purified GST-tagged catalytic domain) (Homo sapiens (Human), UniProt P23458); test: Jak Biochemical HTRF Assay (JAK1); conditions: [ATP] 31.8 μM
Outline: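 Under a 120 min room-temperature, ATP-initiated reaction, peptide phosphorylation was detected by Eu-pY20/streptavidin-Dylight 650 HTRF after EDTA stop. IC50 values derive from percent inhibition curves.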

[2] = molecular target: JAK2 (recombinant purified GST-tagged catalytic domain) (Homo sapiens (Human), UniProt O60674); test: Jak Biochemical HTRF Assay (JAK2); conditions: [ATP] 8.5 μM
Chain of JAK2 (recombinant purified GST-tagged catalytic domain) (O60674 849-1124): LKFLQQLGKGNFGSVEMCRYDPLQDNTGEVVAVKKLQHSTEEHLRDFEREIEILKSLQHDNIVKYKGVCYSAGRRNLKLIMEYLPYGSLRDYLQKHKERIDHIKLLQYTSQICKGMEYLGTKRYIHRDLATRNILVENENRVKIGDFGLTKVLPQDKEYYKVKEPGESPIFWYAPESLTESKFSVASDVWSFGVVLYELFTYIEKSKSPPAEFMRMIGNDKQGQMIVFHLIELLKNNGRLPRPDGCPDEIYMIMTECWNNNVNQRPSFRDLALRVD

Chain of JAK1 (recombinant purified GST-tagged catalytic domain) (P23458 875-1153): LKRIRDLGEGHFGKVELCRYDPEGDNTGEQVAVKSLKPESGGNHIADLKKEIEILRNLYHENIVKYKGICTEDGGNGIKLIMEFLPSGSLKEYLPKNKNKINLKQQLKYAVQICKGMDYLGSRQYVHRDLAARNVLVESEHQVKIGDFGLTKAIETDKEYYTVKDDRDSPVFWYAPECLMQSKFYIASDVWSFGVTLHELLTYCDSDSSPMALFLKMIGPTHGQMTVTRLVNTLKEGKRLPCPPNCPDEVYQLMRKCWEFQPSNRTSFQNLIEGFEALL

| Compound | IC50 [1] [nM] | IC50 [2] [nM] |
| --- | --- | --- |
| CC(C)(C)OC(=O)N1CCC(CC#N)(n2nc(Nc3ccc4c(c3)CN(CC(F)(F)F)C4=O)c3c(=O)[nH]ccc32)CC1 [Example 5-5, tert-butyl 4-(cyanomethyl)-4-(4-oxo-3-{[1-oxo-2-(2,2,2-trifluoroethyl)-2,3-dihydro-1H-isoindol-5-yl]amino}-4,5-dihydro-1H-pyrazolo[4,3-c]pyridin-1-yl)piperidine-1-carboxylate] | 0.28 | 0.31 |
| CC(C)(C)OC(=O)N1CCC(CC#N)(n2nc(Nc3ccc(C(F)(F)F)cc3)c3c(=O)[nH]ccc32)CC1 [Example 5-8, tert-butyl 4-(cyanomethyl)-4-(4-oxo-3-{[4-(trifluoromethyl)phenyl]amino}-4,5-dihydro-1H-pyrazolo [4,3-c]pyridin-1-yl) piperidine-1-carboxylate] | 1.96 | 20 |
| CC(C)(C)OC(=O)N1CCC(CC#N)(n2nc(Nc3ccc4c(c3)CCC4=O)c3c(=O)[nH]ccc32)CC1 [Example 5-12, tert-butyl 4-(cyanomethyl)-4-(4-oxo-3-((1-oxo-2,3-dihydro-1H-inden-5-yl)amino)-4,5-dihydro-1H-pyrazolo[4,3-c]pyridin-1-yl)piperidine-1-carboxylate] | 0.12 | 0.61 |
| CC(C)(C)OC(=O)N1CC[C@@](CC#N)(n2nc(Nc3ccc(S(C)(=O)=O)cc3)c3c(=O)[nH]ccc32)[C@@H](F)C1 [Example 5-16, tert-butyl (3S,4S)-4-(cyanomethyl)-3-fluoro-4-(3-{[4-(methyl-sulfonyl)phenyl]amino}-4-oxo-4,5-dihydro-1H-pyrazolo[4,3-c]pyridin-1-yl)piperidine-1-carboxylate] | 0.12 | 0.35 |
| CC(C)(C)OC(=O)N1CC[C@](CC#N)(n2nc(Nc3ccc(S(C)(=O)=O)cc3)c3c(=O)[nH]ccc32)[C@H](F)C1 [Example 5-17, tert-butyl (3R,4R)-4-(cyanomethyl)-3-fluoro-4-(3-{[4-(methylsulfonyl)phenyl]amino}-4-oxo-4,5-dihydro-1H-pyrazolo [4,3-c]pyridin-1-yl) piperidine-1-carboxylate] | 0.09 | 0.08 |
| CN(C)S(=O)(=O)c1ccc(Nc2nn([C@@]3(CC#N)CCN(C(=O)OC(C)(C)C)C[C@H]3F)c3cc[nH]c(=O)c23)cc1 [Example 5-18, tert-butyl (3R,4R)-4-(cyanomethyl)-4-(3-{[4-(dimethylsulfamoyl)phenyl]amino}-4-oxo-4,5-dihydro-1H-pyrazolo [4,3-c]pyridin-1-yl)-3-fluoropiperidine-1-carboxylate] | 0.1 | 0.12 |
| CC(C)(C)OC(=O)N1CC[C@](CC#N)(n2nc(Nc3ccccc3)c3c(=O)[nH]ccc32)[C@H](F)C1 [Example 5-19, tert-butyl (3R,4R)-4-(cyanomethyl)-3-fluoro-4-[4-oxo-3-(phenyl-amino)-4,5-dihydro-1H-pyrazolo[4,3-c]pyridin-1-yl]piperidine-1-carboxylate] | 0.08 | 0.08 |
| CC(C)(C)OC(=O)N1CC[C@](CC#N)(n2nc(Nc3ccc4c(c3)CN(C(C)(C)C)S4(=O)=O)c3c(=O)[nH]ccc32)[C@H](F)C1 [Example 5-22, tert-butyl (3R,4R)-4-{3-[(2-tert-butyl-1,1-dioxido-2,3-dihydro-1,2-benzisothiazol-5-yl)amino]-4-oxo-4,5-dihydro-1H-pyrazolo [4,3-c]pyridin-1-yl}-4-(cyanomethyl)-3-fluoropiperidine-1-carboxylate] | 0.15 | 0.19 |
| CC(C)(C)OC(=O)N1CCC(CC#N)(n2nc(Nc3ccc4c(c3)CN(C(C)(C)C)S4(=O)=O)c3c(=O)[nH]ccc32)CC1 [Example 5-23, tert-butyl 4-{3-[(2-tert-butyl-1,1-dioxido-2,3-dihydro-1,2-benzisothiazol-5-yl)amino]-4-oxo-4,5-dihydro-1H-pyrazolo[4,3-c]pyridin-1-yl}-4-(cyanomethyl)piperidine-1-carboxylate] | 0.24 | 0.34 |
| CC(C)(C)OC(=O)N1CC[C@](CC#N)(n2nc(Nc3ccc4c(c3)CN(CC(F)(F)F)S4(=O)=O)c3c(=O)[nH]ccc32)[C@H](F)C1 [Example 5-24, tert-butyl (3R,4R)-4-(cyanomethyl)-4-(3-{[1,1-dioxido-2-(2,2,2-trifluoroethyl)-2,3-dihydro-1,2-benzisothiazol-5-yl]amino}-4-oxo-4,5-dihydro-1H-pyrazolo[4,3-c]pyridin-1-yl)-3-fluoropiperidine-1-carboxylate] | 0.2 | 0.25 |
| CC(C)(C)OC(=O)N1CCC(CC#N)(n2nc(Nc3ccc4c(c3)CN(CC(F)(F)F)S4(=O)=O)c3c(=O)[nH]ccc32)CC1 [Example 5-25, tert-butyl 4-(cyanomethyl)-4-(3-((1,1-dioxido-2-(2,2,2-trifluoroethyl)-2,3-dihydrobenzo[d]isothiazol-5-yl)amino)-4-oxo-4,5-dihydro-1H-pyrazolo[4,3-c]pyridin-1-yl)piperidine-1-carboxylate] | 0.19 | 0.3 |
| CC(F)(F)C(=O)N1CCC(CC#N)(n2nc(Nc3ccc4c(c3)CN(C(C)(C)C)S4(=O)=O)c3c(=O)[nH]ccc32)CC1 [Example 5-26, 2-(4-(3-((2-(tert-butyl)-1,1-dioxido-2,3-dihydrobenzo [d]isothiazol-5-yl)amino)-4-oxo-4,5-dihydro-1H-pyrazolo[4,3-c]pyridin-1-yl)-1-(2,2-difluoro-propanoyl)piperidin-4-yl) acetonitrile] | 0.09 | 0.1 |
| N#CC[C@@]1(n2nc(Nc3ccccc3)c3c(=O)[nH]ccc32)CCCOC1 [Example 5-27, (S)-2-(3-(4-oxo-3-(phenylamino)-4,5-dihydro-1H-pyrazolo[4,3-c]pyridin-1-yl)tetrahydro-2H-pyran-3-yl)acetonitrile] | 0.22 | 2.81 |
| CN(C)S(=O)(=O)c1ccc(Nc2nn([C@]3(CC#N)CCCOC3)c3cc[nH]c(=O)c23)cc1 [Example 5-28, (S)-4-((1-(3-(cyanomethyl)tetrahydro-2H-pyran-3-yl)-4-oxo-4,5-dihydro-1H-pyrazolo[4,3-c]pyridin-3-yl)amino)-N,N-dimethyl benzenesulfonamide] | 0.13 | 0.29 |
| CN(C)S(=O)(=O)c1ccc(Nc2nn([C@@]3(CC#N)CCCOC3)c3cc[nH]c(=O)c23)cc1 [Example 5-29, (R)-4-((1-(3-(cyanomethyl)tetrahydro-2H-pyran-3-yl)-4-oxo-4,5-dihydro-1H-pyrazolo[4,3-c]pyridin-3-yl)amino)-N,N-dimethyl benzenesulfonamide] | 13.5 | 27.7 |
| CS(=O)(=O)c1ccc(Nc2nn([C@@]3(CC#N)CCCOC3)c3cc[nH]c(=O)c23)cc1 [Example 5-30, (R)-2-(3-(3-((4-(methylsulfonyl)phenyl)amino)-4-oxo-4,5-dihydro-1H-pyrazolo[4,3-c]pyridin-1-yl)tetrahydro-2H-pyran-3-yl)acetonitrile] | 12.6 | 58 |
| CS(=O)(=O)c1ccc(Nc2nn([C@]3(CC#N)CCCOC3)c3cc[nH]c(=O)c23)cc1 [Example 5-31, (S)-2-(3-(3-((4-(methylsulfonyl)phenyl)amino)-4-oxo-4,5-dihydro-1H-pyrazolo [4,3-c]pyridin-1-yl)tetrahydro-2H-pyran-3-yl)acetonitrile] | 0.26 | 1.64 |
| CC(C)(C)OC(=O)[C@@H]1CC[C@@](CC#N)(n2nc(Nc3ccc(S(C)(=O)=O)cc3)c3c(=O)[nH]ccc32)CO1 [Example 5-39, (2S,5S)-tert-butyl 5-(cyanomethyl)-5-(3-((4-(methylsulfonyl)phenyl)amino)-4-oxo-4,5-dihydro-1H-pyrazolo[4,3-c]pyridin-1-yl)tetrahydro-2H-pyran-2-carboxylate] | 0.06 | 0.43 |
| CC(C)(C)OC(=O)[C@H]1CC[C@](CC#N)(n2nc(Nc3ccc(S(C)(=O)=O)cc3)c3c(=O)[nH]ccc32)CO1 [Example 5-40, (2R,5R)-tert-butyl 5-(cyanomethyl)-5-(3-((4-(methylsulfonyl)phenyl)amino)-4-oxo-4,5-dihydro-1H-pyrazolo [4,3-c]pyridin-1-yl) tetrahydro-2H-pyran-2-carboxylate] | 2.06 | 14.6 |
| CN(C)S(=O)(=O)c1ccc(Nc2nn([C@]3(CC#N)CC[C@@H](C(=O)OC(C)(C)C)OC3)c3cc[nH]c(=O)c23)cc1 [Example 5-43, (2S,5S)-tert-butyl 5-(cyanomethyl)-5-(3-((4-(N,N-dimethylsulfamoyl)phenyl)amino)-4-oxo-4,5-dihydro-1H-pyrazolo[4,3-c]pyridin-1-yl)tetrahydro-2H-pyran-2-carboxylate] | 0.07 | 0.14 |
| CC(C)(C)OC(=O)[C@@H]1CC[C@@](CC#N)(n2nc(Nc3ccc4c(c3)CN(CC(F)(F)F)S4(=O)=O)c3c(=O)[nH]ccc32)CO1 [Example 5-44, (2S,5S)-tert-butyl 5-(cyanomethyl)-5-(3-((1,1-dioxido-2-(2,2,2-trifluoroethyl)-2,3-dihydrobenzo[d]isothiazol-5-yl)amino)-4-oxo-4,5-dihydro-1H-pyrazolo[4,3-c]pyridin-1-yl)tetrahydro-2H-pyran-2-carboxylate] | 0.14 | 0.37 |
| CC(C)(C)OC(=O)N1CC(CC#N)(n2nc(Nc3ccnc(F)c3)c3c(=O)[nH]ccc32)C1 [Example 5-46, tert-butyl 3-(cyanomethyl)-3-{3-[(2-fluoropyridin-4-yl)amino]-4-oxo-4,5-dihydro-1H-pyrazolo[4,3-c]pyridin-1-yl}azetidine-1-carboxylate] | 3.53 | 43.5 |
| CC(C)(C)OC(=O)N1CC(CC#N)(n2nc(Nc3ccc(S(=O)(=O)C(F)(F)F)cc3)c3c(=O)[nH]ccc32)C1 [Example 5-47, tert-butyl 3-(cyanomethyl)-3-[4-oxo-3-({4-[(trifluoromethyl)sulfonyl]phenyl}amino)-4,5-dihydro-1H-pyrazolo[4,3-c]pyridin-1-yl]azetidine-1-carboxylate] | 7.27 | 108 |

From patent publication US9957264B2 (Merck Sharp & Dohme Corp., priority 2013, dated 2018)
